These results are taken from patent publication US11352371B2, “Thienopyrimidine derivatives as ACC inhibitors and uses thereof” (Gilead Sciences, Inc., priority 2019, dated 2022).

The test system of the assay is HepG2 cells. As to the kind of experiment: In vitro De Novo Lipogenesis (DNL) assay, 13C-acetate incorporation into palmitic acid. Type of assay: cell-based. The settings on record: Homo sapiens, 1 hour preincubation, 24 hours with 10 mM 13C-labeled acetate. The protocol:
De Novo Lipogenesis (DNL) was measured in vitro in HepG2 cells by quantifying the incorporation of ^13C-labeled acetate into palmitic acid.
HepG2 cells were plated in growth medium (DMEM (Corning cat #15-018-CM) supplemented with 10% FBS (HyClone cat #SH30071-03), and 1× penicillin, streptomycin, glutamine (Corning cat #30-009-CI)) at 10,000 cells/well in a 384-well cell culture-treated plate (Greiner cat #781091). The cells were then incubated overnight at 37° C., 5% CO2. The next day, the cells were washed twice with sterile DPBS (Corning cat #21-031-CM) and the culture medium was changed to fresh growth medium. The compounds of interest were dosed to cells, followed by a 1 hour incubation at 37° C., 5% CO2. ^13C-labeled acetate (Sigma-Aldrich cat #279315-1G) was added to the culture medium at a concentration of 10 mM and the cells were incubated for 24 hours at 37° C., 5% CO2.
In order to analyze the lipid content of the HepG2 cells, the culture medium was removed and the cells were lysed by adding 30 μL of 0.1 M NaOH. After 5 minutes of incubation at room temperature, 15 μL of cell lysate was transferred to a 384-well deep-well plate (Sigma-Aldrich cat #BR701355-48EA) containing 15 μL of 7.3% KOH in ethanol and mixed. This plate was sealed and incubated at 70° C. for 4 hours to hydrolyze the lipids to free fatty acids. 100 μL of acetonitrile was then added and the plate was spun at 3,700 g for 20 minutes to separate the organic and aqueous phases. 50 μL from the top (organic) phase was transferred to a new 384-well plate (NUNC cat #264573) and the samples were analyzed by mass spectrometry using a RapidFire coupled to a QTOF mass spectrometer. The sum of the area under curve (AUC) for palmitate containing 3 to 7 ^13C was normalized with the AUC of oleate and plotted against compound concentration to determine the potency of ACC inhibitors. […]
`COCCOc1ccccc1[C@H](Cn1c(=O)n(C2(C(=O)NS(=O)(=O)C3(C)CC3)CC2)c(=O)c2c(C)c(-n3nccn3)sc21)O[C@@H]1C[C@H]2CC[C@@H](C1)O2` [Example 30, 1-(1-((R)-2-(((1R,3s,5S)-8-oxabicyclo[3.2.1]octan-3-yl)oxy)-2-(2-(2-methoxyethoxy)phenyl)ethyl)-5-methyl-2,4-dioxo-6-(2H-1,2,3-triazol-2-yl)-1,4-dihydrothieno[2,3-d]pyrimidin-3(2H)-yl)-N-((1-methylcyclopropyl)sulfonyl)cyclopropane-1-carboxamide] came in with an EC50 of 0.0331 µM.

For `COc1ccccc1[C@H](Cn1c(=O)n(C(C)(C)C(=O)NS(=O)(=O)C2(C(F)F)CC2)c(=O)c2c(C)c(-c3ncco3)sc21)O[C@@H]1C[C@H]2CC[C@@H](C1)O2` [Example 2, 2-(1-((R)-2-(((1R,3s,5S)-8-oxabicyclo[3.2.1]octan-3-yl)oxy)-2-(2-methoxyphenyl)ethyl)-5-methyl-6-(oxazol-2-yl)-2,4-dioxo-1,4-dihydrothieno[2,3-d]pyrimidin-3(2H)-yl)-N-((1-(difluoromethyl)cyclopropyl)sulfonyl)-2-methylpropanamide], the EC50 came out at 0.0059 µM.

`Cc1c(-c2ncco2)sc2c1c(=O)n(C(C)(C)C(=O)NS(=O)(=O)C1CC1)c(=O)n2C[C@H](O[C@@H]1C[C@H]2CC[C@@H](C1)O2)c1cc(F)ccc1OC(F)F` [Example 7, 2-(1-((R)-2-(((1R,3s,5S)-8-oxabicyclo[3.2.1]octan-3-yl)oxy)-2-(2-(difluoromethoxy)-5-fluorophenyl)ethyl)-5-methyl-6-(oxazol-2-yl)-2,4-dioxo-1,4-dihydrothieno[2,3-d]pyrimidin-3(2H)-yl)-N-(cyclopropylsulfonyl)-2-methylpropanamide] came in with an EC50 of 0.0076 µM.

For the molecule `COc1ccccc1[C@H](Cn1c(=O)n([C@@H](C)C(=O)NS(=O)(=O)C2(C)CC2)c(=O)c2c(C)c(-c3ncco3)sc21)O[C@@H]1C[C@H]2CC[C@@H](C1)O2` [Example 16, (S)-2-(1-((R)-2-(((1R,3s,5S)-8-oxabicyclo[3.2.1]octan-3-yl)oxy)-2-(2-methoxyphenyl)ethyl)-5-methyl-6-(oxazol-2-yl)-2,4-dioxo-1,4-dihydrothieno[2,3-d]pyrimidin-3(2H)-yl)-N-((1-methylcyclopropyl)sulfonyl)propanamide], the half-maximal effective concentration (EC50) came to 0.0019 µM.

Turning to `COc1ccccc1[C@H](Cn1c(=O)n(C(C)(C)C(=O)NS(=O)(=O)C2(C)CC2)c(=O)c2c(C)c(-n3nccn3)sc21)O[C@@H]1C[C@H]2CC[C@@H](C1)O2` [Example 19, 2-(1-((R)-2-(((1R,3s,5S)-8-oxabicyclo[3.2.1]octan-3-yl)oxy)-2-(2-methoxyphenyl)ethyl)-5-methyl-2,4-dioxo-6-(2H-1,2,3-triazol-2-yl)-1,4-dihydrothieno[2,3-d]pyrimidin-3(2H)-yl)-2-methyl-N-((1-methylcyclopropyl)sulfonyl)propanamide], the half-maximal effective concentration (EC50) came out at 0.001 µM.

Turning to `Cc1c(-c2ncco2)sc2c1c(=O)n(C1(C(=O)NS(=O)(=O)C(C)(C)C)CC1)c(=O)n2C[C@H](O[C@@H]1C[C@H]2CC[C@@H](C1)O2)c1ccccc1OC(F)F` [Example 13, 1-(1-((R)-2-(((1R,3s,5S)-8-oxabicyclo[3.2.1]octan-3-yl)oxy)-2-(2-(difluoromethoxy)phenyl)ethyl)-5-methyl-6-(oxazol-2-yl)-2,4-dioxo-1,4-dihydrothieno[2,3-d]pyrimidin-3(2H)-yl)-N-(tert-butylsulfonyl)cyclopropane-1-carboxamide], the EC50 came out at 0.882 µM.

Turning to `Cc1c(-n2nccn2)sc2c1c(=O)n(C(C)(C)C(=O)NS(=O)(=O)C1(C)CC1)c(=O)n2C[C@H](O[C@H]1C[C@H]2CC[C@@H](C1)O2)c1ccccc1OC(F)F` [Example 21, 2-(1-((R)-2-(((1R,3r,5S)-8-oxabicyclo[3.2.1]octan-3-yl)oxy)-2-(2-(difluoromethoxy)phenyl)ethyl)-5-methyl-2,4-dioxo-6-(2H-1,2,3-triazol-2-yl)-1,4-dihydrothieno[2,3-d]pyrimidin-3(2H)-yl)-2-methyl-N-((1-methylcyclopropyl)sulfonyl)propanamide], the half-maximal effective concentration (EC50) stood at 0.0297 µM.

Take `Cc1c(-c2ncco2)sc2c1c(=O)n(C1(C(=O)NS(=O)(=O)C(C)(C)C)CC1)c(=O)n2C[C@H](O[C@@H]1C[C@H]2CC[C@@H](C1)O2)c1cc(F)ccc1OC(F)F` [Example 11, 1-(1-((R)-2-(((1R,3s,5S)-8-oxabicyclo[3.2.1]octan-3-yl)oxy)-2-(2-(difluoromethoxy)-5-fluorophenyl)ethyl)-5-methyl-6-(oxazol-2-yl)-2,4-dioxo-1,4-dihydrothieno[2,3-d]pyrimidin-3(2H)-yl)-N-(tert-butylsulfonyl)cyclopropane-1-carboxamide]: it took 0.0662 µM to reach a half-maximal effect (EC50).

Take `COCCOc1ccccc1[C@H](Cn1c(=O)n(C(C)(C)C(=O)NS(=O)(=O)C2(C)CC2)c(=O)c2c(C)c(-n3nccn3)sc21)O[C@@H]1C[C@H]2CC[C@@H](C1)O2` [Example 24, 2-(1-((R)-2-(((1R,3s,5S)-8-oxabicyclo[3.2.1]octan-3-yl)oxy)-2-(2-(2-methoxyethoxy)phenyl)ethyl)-5-methyl-2,4-dioxo-6-(2H-1,2,3-triazol-2-yl)-1,4-dihydrothieno[2,3-d]pyrimidin-3(2H)-yl)-2-methyl-N-((1-methylcyclopropyl)sulfonyl)propanamide]: a half-maximal effect (EC50) was put at 0.0243 µM.

Take `COc1ccc(F)cc1[C@H](Cn1c(=O)n(C(C)(C)C(=O)NS(=O)(=O)C2(C)CC2)c(=O)c2c(C)c(-c3ncsn3)sc21)O[C@@H]1C[C@H]2CC[C@@H](C1)O2` [Example 31, 2-(1-((R)-2-(((1R,3s,5S)-8-oxabicyclo[3.2.1]octan-3-yl)oxy)-2-(5-fluoro-2-methoxyphenyl)ethyl)-5-methyl-2,4-dioxo-6-(1,2,4-thiadiazol-3-yl)-1,4-dihydrothieno[2,3-d]pyrimidin-3(2H)-yl)-2-methyl-N-((1-methylcyclopropyl)sulfonyl)propanamide]: the response was half-maximal at 0.0014 µM (EC50).

In turn, `Cc1c(-n2nccn2)sc2c1c(=O)n(C1(C(=O)NS(=O)(=O)C(C)(C)C)CC1)c(=O)n2C[C@H](O[C@@H]1C[C@H]2CC[C@@H](C1)O2)c1ccccc1OC(F)F` [Example 27, 1-(1-((R)-2-(((1R,3s,5S)-8-oxabicyclo[3.2.1]octan-3-yl)oxy)-2-(2-(difluoromethoxy)phenyl)ethyl)-5-methyl-2,4-dioxo-6-(2H-1,2,3-triazol-2-yl)-1,4-dihydrothieno[2,3-d]pyrimidin-3(2H)-yl)-N-(tert-butylsulfonyl)cyclopropane-1-carboxamide] had an EC50 of 0.363 µM.

Regarding `Cc1c(-n2nccn2)sc2c1c(=O)n(C1(C(=O)NS(=O)(=O)C(C)(C)C)CC1)c(=O)n2C[C@H](O[C@@H]1C[C@H]2CC[C@@H](C1)O2)c1cc(F)ccc1OC(F)F` [Example 29, 1-(1-((R)-2-(((1R,3s,5S)-8-oxabicyclo[3.2.1]octan-3-yl)oxy)-2-(2-(difluoromethoxy)-5-fluorophenyl)ethyl)-5-methyl-2,4-dioxo-6-(2H-1,2,3-triazol-2-yl)-1,4-dihydrothieno[2,3-d]pyrimidin-3(2H)-yl)-N-(tert-butylsulfonyl)cyclopropane-1-carboxamide], a half-maximal effect (EC50) was put at 0.0102 µM.
